Assay in all cases: growth of human tumour cells (NCI), 48 h
The test system of assay [1] is KM12 colon.
Assay [2] concerns BT-549 breast.
Assay [3] relates to OVCAR-3 ovarian.
Assay [4] deals with OVCAR-5 ovarian.
The test system of assay [5] is TK-10 renal.
The subject of assay [6] is SW-620 colon.
For assay [7], the system named is CCRF-CEM leukemia.
Assay [8] relates to HCC-2998 colon.
Assay [9] concerns HCT-116 colon.
The test system of assay [10] is A498 renal.

Where “and” joins values, the source holds several entries; their conditions need not be identical. Equal values may be shown once.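 Cells were grown in 96-well plates and exposed to each compound for 48 hours at five concentrations; endpoints were interpolated linearly between bracketing concentrations, or set to the highest concentration if not reached. Here, GI50 denotes the concentration required for 50% inhibition of growth. TGI denotes the concentration required for complete inhibition of growth.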

Take `CC(=Nc1ccccc1)C1=C(O)C(Cc2ccccc2)NC1=O` (stereo unspecified): the GI50 in [1] was 0.0278 µM; in assay [2] it was 0.0578 µM; in assay [3], 0.0237 µM; in assay [4] it was 0.0938 µM; in assay [5], 0.042 µM; in assay [6], 0.0328 µM. In addition, the GI50 in assay [7] is 0.0431 µM; in assay [8], 0.0779 µM; in assay [9], 0.0363 µM; in assay [10], 0.0307 µM. Further, the TGI in [1] was 0.266 µM; in [2], 0.501 µM; in assay [3], 0.0535 µM; in assay [4] it was above 100 µM; in assay [5] it was above 100 µM; in [6], above 100 µM. The TGI in assay [7] is above 100 µM; in assay [8], 0.64 µM; in [9], 0.51 µM; in [10], 0.259 µM.
Regarding `CC(=O)O[C@]1(C(C)=O)CC[C@H]2[C@@H]3C=C(C)C4=CC(=O)CC[C@]4(C)[C@H]3CC[C@@]21C`, the GI50 was above 100 µM in [1]; 37.4 µM in assay [2]; above 100 µM in assay [3]; above 100 µM in assay [4]; above 77.6 µM in [5]; above 100 µM in assay [6]. Further, the GI50 was above 80.4 µM in assay [7], above 100 µM in assay [8], 28 µM in [9] and above 75.7 µM in [10]. For the same molecule, the TGI in assay [1], in [2], in [3], in assay [4], in assay [5] and in assay [6] was above 100 µM throughout. For the same molecule, the TGI in assay [7], in assay [8], in assay [9] and in [10] was above 100 µM each time.
For `COc1cc(OC)c(/C=C/c2cnc3ccccc3n2)c(OC)c1`, the TGI in assay [1], in assay [2], in assay [3], in [4], in [5] and in assay [6] was above 10 µM in each case. Further, the TGI in assay [7], in assay [8], in assay [9] and in assay [10] was above 10 µM each time.
As to `CCCCCCCCCCCC1CCCC(C)N1` (stereo unspecified), the GI50 in assay [1] is 2.95 µM; in assay [2], 7.39 µM; in assay [3] it was 12 µM; in assay [4], 12.5 µM; in assay [5], 6.47 µM; in assay [6], 2.71 µM. The GI50 in [7] is 1.45 µM; in [8], 2.05 µM; in assay [9], 5.82 µM; in [10] it was 16.2 µM. In addition, the TGI in assay [2] is 22.6 µM; in assay [3], 28.7 µM and 121 µM; in assay [4] it was 28.5 µM and 162 µM; in assay [5], 19.3 µM; in assay [9], > 41.9 µM and 104 µM; in assay [10] it was 31.9 µM and 154 µM.
In the case of `COc1ccc(-c2nc3ccccn3c2/C=C/C(=O)c2cc(OC)c(OC)c(OC)c2)cc1`, the GI50 in [1] is 4.99 µM; in assay [2], 3.27 µM; in assay [3], 2.88 µM; in assay [4] it was 9.33 µM; in assay [5], 4.16 µM; in assay [6], 4.16 µM. In addition, the GI50 was 18.8 µM in [7], 8.27 µM in [8], 2.26 µM in [9] and 10.4 µM in assay [10]. In addition, the TGI was above 100 µM in [1]; above 100 µM in [2]; 9.67 µM in [3]; 82.2 µM in assay [4]; above 100 µM in assay [5]; above 100 µM in assay [6]. Further, the TGI in [7] was above 100 µM; in assay [8] it was 42 µM; in [9], 11.1 µM; in [10], 43.9 µM.
For the molecule `COc1cc2c(cc1Nc1nc(Nc3ccsc3C(N)=O)c3cc[nH]c3n1)N(C(=O)CN(C)C)CCC2(C)C`, the GI50 in assay [1] is 0.647 µM; in assay [2] it was 2.01 µM; in assay [3] it was 2.05 µM; in assay [4] it was 0.0412 µM; in assay [5], 1.36 µM; in assay [6], 0.357 µM. Further, the GI50 in assay [7] was 0.685 µM; in assay [8], 0.485 µM; in assay [9] it was 1.05 µM; in [10], 1.18 µM. In addition, the TGI in assay [1] amounted to 2.61 µM; in assay [2], 5.6 µM; in [3], 5.17 µM; in [4] it was 3.67 µM; in assay [5] it was 4.97 µM; in [6], 4.1 µM. Also, the TGI turned out to be 3.78 µM in [7], 4.47 µM in assay [8], 4.8 µM in [9] and 4.97 µM in assay [10].
Take `COc1ccc(OC)c(/C=C(/C)[N+](=O)[O-])c1`: the GI50 in [1] is 2.28 µM; in [2] it was 5.4 µM; in assay [3] it was 1.81 µM; in assay [4], 3.13 µM; in [5], 1.96 µM; in assay [6], 1.79 µM. Further, the GI50 is 2.66 µM in [7], 1.84 µM in assay [8], 1.88 µM in assay [9] and 8.24 µM in [10]. Further, the TGI in assay [1] is 5.94 µM; in assay [2] it was 18.5 µM; in assay [3], 3.27 µM; in [4], 10.7 µM; in [5], 3.47 µM; in assay [6] it was 3.78 µM. The TGI was above 100 µM in assay [7], 3.41 µM in assay [8], 3.54 µM in assay [9] and 20.9 µM in assay [10].
Regarding `COC(=O)C1=C(C)NC(C)=C(C(=O)OC)C1/C=C(Cl)/C=C/c1ccccc1`, the GI50 in [1] is 18.4 µM; in assay [2] it was 21.6 µM; in assay [3], 15.3 µM; in assay [4], 19.4 µM; in [5], 22.7 µM; in assay [6], 37.3 µM. Further, the GI50 in assay [7] was 29.6 µM; in assay [8], 14 µM; in assay [9], 17.2 µM; in assay [10] it was 16.8 µM. Further, the TGI was 39.5 µM in [1]; 55.7 µM in assay [2]; 31.9 µM in [3]; 54.2 µM in assay [4]; 65.9 µM in assay [5]; above 100 µM in [6]. Besides, the TGI came out at 60 µM in assay [7], 27.2 µM in assay [8], 30.9 µM in assay [9] and 36 µM in assay [10].
